Experimental findings from article PMC4148167 (Journal of Medicinal Chemistry, 2014) are described below.

The subject of one series is Molm-14 AML cells. As to the kind of experiment: soft agar colony formation, Molm-14. The series is classed as cell-based. The settings on record: 2 weeks, negative control 20 at 50 nM.
For the next series, the system named is A549 NSCLC cells. The series is described as follows: soft agar colony formation, A549. It is filed as cell-based. The settings on record: 2 weeks, negative control 20 at 300 nM.
The target of the next series is T1, Mer (Homo sapiens, UniProt Q12866).
T1 sequence (Q12866 21-999): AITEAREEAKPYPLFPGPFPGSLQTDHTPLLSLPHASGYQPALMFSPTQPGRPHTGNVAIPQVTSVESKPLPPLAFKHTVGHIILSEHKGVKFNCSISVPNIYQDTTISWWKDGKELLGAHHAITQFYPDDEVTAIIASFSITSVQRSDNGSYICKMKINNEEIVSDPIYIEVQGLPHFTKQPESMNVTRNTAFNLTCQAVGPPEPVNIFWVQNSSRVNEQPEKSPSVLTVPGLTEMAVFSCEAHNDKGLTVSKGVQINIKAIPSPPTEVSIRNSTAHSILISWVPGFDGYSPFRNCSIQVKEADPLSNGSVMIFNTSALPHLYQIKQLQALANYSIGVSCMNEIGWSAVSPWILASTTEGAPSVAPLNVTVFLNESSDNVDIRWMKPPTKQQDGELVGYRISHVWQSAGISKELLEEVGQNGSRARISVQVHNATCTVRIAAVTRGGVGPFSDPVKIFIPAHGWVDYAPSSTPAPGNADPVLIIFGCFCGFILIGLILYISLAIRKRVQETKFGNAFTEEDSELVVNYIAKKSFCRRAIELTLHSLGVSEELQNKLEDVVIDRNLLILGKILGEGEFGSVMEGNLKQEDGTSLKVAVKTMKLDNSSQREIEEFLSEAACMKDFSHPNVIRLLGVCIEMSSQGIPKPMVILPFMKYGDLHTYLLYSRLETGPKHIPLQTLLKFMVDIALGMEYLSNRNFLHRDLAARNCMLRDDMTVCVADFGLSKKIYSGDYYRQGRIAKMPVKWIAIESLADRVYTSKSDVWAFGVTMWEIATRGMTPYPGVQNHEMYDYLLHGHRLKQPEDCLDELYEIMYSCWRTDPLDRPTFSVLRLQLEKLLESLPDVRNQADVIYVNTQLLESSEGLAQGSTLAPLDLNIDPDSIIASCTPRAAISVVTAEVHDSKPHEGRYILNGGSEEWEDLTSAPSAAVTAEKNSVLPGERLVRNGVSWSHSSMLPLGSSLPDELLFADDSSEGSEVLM
As to the kind of experiment: pharmacodynamic study: Mer phosphorylation in bone marrow leukemia cells in vivo. Also on record: species or system NOD/SCID/gamma mice with 697 human leukemia xenografts. The note with it: single 3 mg/kg oral dose, 30 min after dosing.

Another series has as its system 305 kinases. As to the kind of experiment: Carna Biosciences kinome profile at 100 nM. The series is classed as biochemical. The settings on record: in duplicate.
The nature of the next series: kinetic solubility. The series is classed as physicochemical. The settings on record: normal saline, pH 7.4.

Converted amounts (≈) assume the structure as drawn.

`CCCCN(C)c1ncc2c(-c3ccc(CN4CCN(C)CC4)cc3)cn([C@H]3CC[C@H](O)CC3)c2n1` [Compound 20]: in the series with Molm-14 AML cells, the “effect on colony formation in soft agar, Molm-14 AML” value was “no significant effect”. Moreover, in the series with A549 NSCLC cells, the “effect on colony formation in soft agar, A549 NSCLC” value was “no significant effect”.
`CCCCNc1ncc2c(-c3ccc(CN4CCN(C)CC4)cc3)cn([C@H]3CC[C@H](O)CC3)c2n1` [Compound 11]: on Mer, the “decrease of Mer phospho-protein levels in bone marrow leukemia cells” value is on record as “greater than 90%”. The “number of kinases inhibited by more than 50%” value in the series with 305 kinases is on record as “Sixty-six”. Further, in the series with Molm-14 AML cells, the “effect on colony formation in soft agar, Molm-14 AML” value was “significant inhibition of colony formation”. Also, the “effect on colony formation in soft agar, A549 NSCLC” value with A549 NSCLC cells is “significant inhibition of colony formation”. Further, the kinetic solubility in the series “kinetic solubility” was 0.038 mg/mL (≈ 79.7 µM).

The kinetic solubility is the concentration staying in solution when a stock, usually in DMSO, is diluted into the medium.
